Results taken from patent publication EP2698385A1, “Detection of synthetic cannabinoids” (priority 2012, dated 2014).
Counter-ions that a name gives are not always drawn.

Legend:
Type in all cases: binding, sheep
Antibody to Immunogen I = conditions: Cross-reactants at 100 ng/ml; Antibody to Immunogen I
Protocol: (§1) An aqueous solution of each immunogen was formulated with Freund's Complete Adjuvant (FCA) to form an emulsion consisting of 2mg/ml* immunogen in 50% (v/v) FCA. Three sheep were immunised with this emulsion (1° immunisation), 0.25ml being intramuscularly injected at each of four sites in the flank of each animal. Subsequent immunizations (boosts) contained 1mg/ml* immunogen. All boosts were emulsified in 50% (v/v) Freund's Incomplete Adjuvant (FIA) and were administered in the same manner as the 1° immunisation, at monthly intervals. Blood sampling took place 7 to 14 days after each boost. *The general procedure for immunogen administration is outlined above, however, it was necessary to deviate from this protocol in some cases, due to reduced immunogen concentrations (Immunogens II, IV, VII and VIII) and/or amount available (Immunogen VIII). Any deviations from the protocol described are outlined in Table 1A below and highlighted in bold. Table 1A: Amount and volume of immunogens administered for primary and subsequent boosts
(§2) The wells of an enhanced binding 96 well polystyrene microtiter plate were coated with IgG fraction of antiserum raised to Immunogen I or II, diluted in 10mM Tris, pH8.5 (125µl/well). The appropriate antibody coating dilution was determined using standard ELISA checkerboard techniques. The plate was incubated overnight at 4°C, washed 4 times over 10 minutes with Tris buffered saline containing Tween 20 (TBST) and tapped dry. Standard solutions (JWH-018 for Immunogens I and II) were applied at 0, 0.625, 1.25, 2.5, 5, 10, 20 and 40ng/ml and 50µl of each was added to the appropriate wells. 75µl of conjugate (appropriate hapten-HRP) diluted in Tris buffer (pH 7.2) containing EDTA, D-mannitol, sucrose, thimerosal and BSA, was added to each of the wells. The appropriate dilution of conjugate was also determined using standard ELISA checkerboard techniques. The plate was incubated at 25°C for 1 hour. Excess unbound conjugate was removed by washing 6 times over a 10 minute period with TBST. 125µl of tetramethylbenzidine (TMB) substrate solution was added to each well of the plate that was then incubated for 20 minutes in the dark at room temperature. The reaction was terminated by addition of 125µl 0.2M H2SO4 to each well. The absorbance was then measured at 450nm using a microtiter plate reader. The data are inputted to a computer program called 'KC Junior'. It is a 4 parameter fit curve and allow the calculatation of concentrations between the standard runs. This program is used to calculate the IC50s by dividing the 0ng/ml OD value by 2 and obtaining the concentration value from the curve for this OD.
In a similar manner to that described above, the wells of a 96-well microtiter plate were coated with the IgG fraction of the antiserum raised to Immunogens I or II. Standard solutions (JWH-018 for Immunogen I and II) were applied at 0, 0.625, 1.25, 2.5, 5, 10, 20 and 40ng/ml and conjugate was employed as detection reagent.
(§3) The data set our in Tables 3 and 4 are generated using antibodies raised against the indicated Immunogens in a competitive binding assay with the indicated tracers, using the indicated standards: Table 2
(§4) A450 = absorbance at 450nm B = absorbance at 450nm at xng/ml standard concentration B0 = absorbance at 450nm at 0ng/ml standard concentration IC50 = standard concentration which produces 50% B/B0
(§5) In order to determine the specificity of the competitive ELISAs, standard solutions of a range of structurally similar synthetic cannabinoids and their metabolites were prepared in TBST. Using the calibration curves generated and employing a single level of cross reactants, these were used to determine the cross-reactivity of each immunoassay with these substances. […]

Antibody to Immunogen IV = conditions: Cross-reactants at 100 ng/ml; Antibody to Immunogen IV
Protocol: as §1, §2
(§6) In a similar manner to that described above, the wells of a 96-well microtiter plate were coated with the IgG fraction of the antiserum raised to Immunogens IV, VII or VIII. Standard solutions (JWH-018 for Immunogens IV and VIII, JWH-015 for Immunogen VII) were prepared in TBST at 0, 1.25, 2.5, 5, 10, 20, 40 and 80ng/ml and conjugate was employed as detection reagent.
as §3, §4, §5

[1] = test system: Antibody to Immunogen VIII; conditions: Cross-reactants at 100 ng/ml; Antibody to Immunogen VIII
Protocol: as §1, §2, §6, §3, §4, §5

[2] = test system: Antibody to Immunogen VII; conditions: Cross-reactants at 100 ng/ml; Antibody to Immunogen VII
Protocol: as §1, §2, §6, §3, §4, §5

| Compound | %B/B0 (Antibody to Immunogen I) [%] | %B/B0 (Antibody to Immunogen IV) [%] | %B/B0 [1] [%] | %B/B0 [2] [%] |
| --- | --- | --- | --- | --- |
| CCCCCn1cc(C(=O)c2ccc(OC)cc2)c2ccccc21 [RCS-4] | 80.46 | 19.21 | 5.93 | 93.51 |
| CCCCCn1cc(C(=O)c2cccc3ccc(CC)cc23)c2ccccc21 [JWH-210 7-ethylnaphthyl isomer or JWH-234, JWH-210 7-ethylnaphthyl isomer] | 73.11 | 27.07 | 50.90 | 100.55 |
| COc1ccccc1CC(=O)c1cn(CCCCCO)c2ccccc12 [JWH 250 N-(5-hydroxypentyl) metabolite] | 75.47 | 76.22 | 42.79 | 96.13 |
| CCCCCn1cc(C(=O)Cc2ccccc2OC)c2cc(O)ccc21 [JWH 250 5-hydroxyindole metabolite] | 100.75 | 84.05 | 67.19 | 99.88 |
| O=C(c1ccc(I)cc1)c1cn(CCCCCF)c2ccccc12 [AM-694 4-iodo isomer] | 73.79 | 27.66 | 13.42 | 98.71 |
| JWH 203 3-chloro isomer [JWH 203 3-chloro isomer (JWH-237)] | 95.59 | 55.09 | 10.34 | 97.42 |
| CCCCCn1cc(C(=O)c2c(CC)ccc3ccccc23)c2ccccc21 [JWH-210 2-ethylnaphthyl isomer] | 81.37 | 53.97 | 73.51 | 96.13 |
| COc1cccc(CC(=O)c2cn(CCC3CCCCC3)c3ccccc23)c1 [RCS-8 3-methoxy isomer] | 93.24 | 89.43 | 83.62 | 93.73 |
| CCCC(C)(C)c1ccc2c(c1)OC(C)(C)[C@@H]1CC=C(C)C[C@@H]21 [JWH-133] | 100.56 | 98.18 | 100.00 | 101.84 |
| COc1ccc(C(=O)c2c(C)n(CCN3CCOCC3)c3cc(I)ccc23)cc1 [AM-630 (other name 6-Iodopravadoline), 6-Iodopravadoline] | 91.12 | 90.17 | 89.88 | 99.88 |
| CCCCn1cc(C(=O)c2ccc(C)c3ccccc23)c2ccccc21 [JWH-073 4-methylnaphthyl analogue] | 45.54 | 7.01 | 19.75 | 78.36 |
| CCCCCn1cc(C(=O)Cc2ccccc2C)c2ccccc21 [JWH-251] | 68.01 | 42.02 | 9.12 | 96.74 |
| CCCCCCC(C)(C)c1cc(O)c2c(c1)OC(C)(C)[C@@H]1CC=C(CO)C[C@@H]21 [HU-210] | 102.57 | 92.53 | 93.42 | 100.39 |
| NCCc1c[nH]c2ccc(O)cc12 [Serotonin HCl] | – | 95.40 | 100.36 | 99.83 |
| CCCCCn1cc(C(=O)c2ccc(CCC)c3ccccc23)c2ccccc21 [JWH-182] | 107.08 | 12.83 | 30.65 | 98.40 |
| CCCCCCC(C)(C)c1cc(O)c2c(c1)OC(C)(C)[C@H]1CC=C(CO)C[C@H]21 [HU-211 (Dexanabinol), Dexanabinol] | 103.36 | 93.37 | 92.70 | 96.78 |
